Laboratory results published in patent publication US10578608B1, “Tools to detect, track and target cancer cells in vivo” (The Regents of the University of California, priority 2015, dated 2020).
k = constrained ethyl (cEt); d = 2'-deoxy (DNA)

Key:
MSI1 RNA = assay: MSI1 expression after ASO free uptake (q-RT-PCR); type: cell-based, human; settings: 24 hours, MIA PaCa-2 cells
Experimental: (FIG. 8 F to FIG. 8H) Real time PCR analysis of Msi expression following ASO free uptake in MIA PaCa-2 cells. MIA PaCa-2 cells were treated with 2 Gen 2.5 cEt ASOx target MSI1 or Control Gen 2.5 ASO for 24 hours, RNA was isolated and target knockdown (MSI1 RNA level) was determined by q-RT-PCR. IC50 values for each ASO were calculated using GraphPad Prism software; each treatment condition was performed in triplicate. (FIG. 8I) Colony formation assay in MSI1 ASO-treated MIA PaCa-2 cells after weekly delivery of control or MSI1 ASOs; colonies were counted after 4 weeks; n=3 for each ASO tested. (FIG. 8J) In vivo tracking of tumor volume in MSI1 ASO treated MIA PaCa-2 tumors with intratumoral delivery of control or MSI1 ASOs every day for 5 days followed by 2 days off; n=5 for each ASO tested. Nonlinear regression was used to determine the difference in slope between Control ASO and MSI1-ASO-1 (p<0.001). (FIG. 8K) In vivo tracking of tumor volume of primary KP^f/fC tumors with intratumoral delivery of control ASO or MSI1 ASOs following tumor establishment (n=4). […]
To identify human Msi ASO inhibitors, rapid throughput screens were performed to identify effective ASOs as previously described (Wang, J. C. Y. & Dick, J. E. Cancer stem cells: lessons from leukemia. Trends in Cell Biology 15, 494-501 (2005); Reya, T., Morrison, S. J., Clarke, M. F. & Weissman, I. L. Stem cells, cancer, and cancer stem cells. Nature 414(6859):105-11 (2001); Carroll, J. B. et al. Potent and Selective Antisense Oligonucleotides Targeting Single-Nucleotide Polymorphisms in the Huntington Disease Gene/Allele-Specific Silencing of Mutant Huntingtin. Molecular Therapy 19, 2178-2185 (2009); Samuel, V. T. et al. Targeting foxo1 in mice using antisense oligonucleotide improves hepatic and peripheral insulin action. […] Gene expression was assessed with taqman probes for MSI1 and MSI2. […] Colonies were counted 21 days after the first ASO treatment. […] Tumor measurements were recorded every 3 days. […]

MIA PaCa-2 tumors = assay: In vivo growth of MIA PaCa-2 flank tumors with intratumoral ASO; design: species or system mouse; settings: intratumoral delivery, four weeks (5 days on and 2 days off), NSG mice
Description: Although ASOs have been used to inhibit gene expression in a variety of tissues (Carroll, J. B. et al. Potent and Selective Antisense Oligonucleotides Targeting Single-Nucleotide Polymorphisms in the Huntington Disease Gene/Allele-Specific Silencing of Mutant Huntingtin. Molecular Therapy 19, 2178-2185 (2009); Hung, G. et al. Characterization of Target mRNA Reduction Through In SituRNA Hybridization in Multiple Organ Systems Following Systemic Antisense Treatment in Animals. Nucleic Acid Therapeutics 23, 369-378 (2013); Rigo, F. et al. Pharmacology of a central nervous system delivered 2′-O-methoxyethyl-modified survival of motor neuron splicing oligonucleotide in mice and nonhuman primates. Journal of Pharmacology and Experimental Therapeutics 350, 46-55 (2014)), whether pancreatic cancer cells can take up ASOs was not known. […] Functionally MSI1 ASOs led to a marked reduction in colony numbers as well as in colony size, with a cumulative reduction of ˜2.5 fold in total growth (FIG. 4I). To test the impact of ASO mediated MSI1 inhibition in vivo, human pancreatic cancer cells were transplanted until growth was measurable. Subsequently, MSI1 inhibitors were delivered intratumorally for a period of four weeks (5 days on and 2 days off) and tumor growth monitored. […] KP^f/fC pancreatic tumor cells were isolated, transplanted and monitored until measurable growth (30 mm^3). […]

5′-ATATGATACAGGACGG-3′ (sugars from the 5' end k3 d10 k3, backbone and methylation of C not given here) [ASO-1]
MSI1 expression in cell lines after ASO treatment (MSI1 RNA): inhibited MSI1 expression | Tumor growth of human pancreatic cancer cell line derived tumors (MIA PaCa-2 tumors): significant reduction in the rate of tumor growth
